# Measurements: patent US20240058315A1, “Pyridine and Pyrazine derivative for the Treatment of CF, COPD, and Bronchiectasis” (NOVARTIS AG, priority 2019, published 2024)
# “Also recorded” adds a separate entry of the source.
# Assays:
# [1] = test system: CFTR; experiment: COPD PoC study (study 2): sweat chloride; format: in vivo, human; conditions: Day 29, 300 mg bid 28 days, 90% CI −11.6, 1.25, p-value=0.091
# Description: (§1) Patients were randomized and stratified by smoking status (former vs current smokers). The double-blind placebo-controlled treatment period was 28 days (Day 1 to Day 28) and included visits on Days 1, 14 and 28. Eligible patients were randomized in a 2:1 ratio to receive 300 mg b.i.d. of Compound A or matching placebo for 28 consecutive days. Of note, the first 4 patients enrolled randomized in this study received 450 mg b.i.d. of Compound A or placebo, prior to an amendment reducing the dose and thereafter the dose was reduced to 300 mg b.i.d. of Compound A. The single-blind placebo-controlled follow-up period was 28 days. The follow-up period included a visit on Day 29 for key primary and secondary objective efficacy assessments, weekly follow-up contact via telephone, and an End-of-Study (EOS) visit on Day 56.
# [2] = test system: patients with CF; experiment: Clinical study in cystic fibrosis patients: lung function (FEV1); format: in vivo, human; conditions: two weeks of treatment, listed as Compound A
# [3] = test system: OAT1/3; experiment: in vitro inhibition of OAT1/3; format: in vitro ADME
# [4] = test system: Pseudomonas aeruginosa Biotype 2 - dry; experiment: Phase II study in COPD patients: sputum microbiology, Pseudomonas aeruginosa Biotype 2 - dry; format: in vivo
# Description: as §1
# (§2) Spontaneous sputum was collected from patients and used to quantify colony forming units (CFUs) as a potential efficacy marker. The collected sputum samples were cultured for the following specific bacteria: Haemophilus parainfluenza, Haemophilus influenza, Pseudomonas aeruginosa, Moraxella, and Streptococcus pneumonia. In the event of bacterial growth for one or more of the above five pathogens, then the test result was reported, including the quantitative growth. In order to be included in the sputum analysis, a patient must have provided a sufficient sputum sample at baseline and at least one other visit (Day 14, Day 29 or EOS).
# (§3) A decrease in airway bacterial colonization as detected in the sputum is considered improvement. In Table 4, the frequency (n, %) of patients was reported by treatment with Compound A and type of bacteria. Within each treatment group, the percentage was calculated as number of patients who were colonized with bacteria divided with total number of patients who produced a sputum sample at that time point.
# [5] = biological target: UGT1A1 (Homo sapiens (Human), UniProt P22309); experiment: in vitro inhibition of UGT1A1; format: in vitro ADME
# [6] = test system: Haemophilus influenzae; experiment: Phase II study in COPD patients: sputum microbiology, Haemophilus influenzae; format: in vivo
# Description: as §1, §2, §3
# [7] = biological target: wild type CTFR channel (Homo sapiens (Human), UniProt P13569); experiment: in vitro EC50 against the wild type CFTR channel; format: cell-based
# Excerpt: There is no preclinical in vivo model of CFTR potentiation.
# [8] = biological target: OATP1B3 (Homo sapiens (Human), UniProt Q9NPD5); experiment: in vitro inhibition of OATP1B3; format: in vitro ADME
# [9] = in vivo; conditions: monkey
# [10] = test system: Any Pathogen (Haemophilus parainfluenza, Haemophilus influenza, Pseudomonas aeruginosa, Moraxella, Streptococcus pneumonia) in sputum; experiment: Phase II study in COPD patients: sputum microbiology, any pathogen; format: in vivo; conditions: for patients colonized, n (%) / patients with a positive culture, n (%): Any Pathogen; for patients colonized, n (%): all patients in sputum analysis; for patients with a positive culture, n (%): only subjects with a pathogen at baseline; for percent of patients who cleared colonization: patients with culture positive sputum at Baseline
# Description: A double-blinded, randomized, placebo-controlled, non-confirmatory, and multi-center, fixed-dose study of Compound A in COPD patients was conducted to assess efficacy, safety, tolerability, pharmacokinetics (PK), and pharmacodynamics (PD). Patients were randomized and stratified by smoking status (former vs current smokers). The double-blind placebo-controlled treatment period was 28 days (Day 1 to Day 28) and included visits on Days 1, 14 and 28. Eligible patients were randomized in a 2:1 ratio to receive 300 mg b.i.d. of Compound A or matching placebo for 28 consecutive days. Of note, the first 4 patients enrolled randomized in this study received 450 mg b.i.d. of Compound A or placebo, prior to an amendment reducing the dose and thereafter the dose was reduced to 300 mg b.i.d. of Compound A. The single-blind placebo-controlled follow-up period was 28 days. The follow-up period included a visit on Day 29 for key primary and secondary objective efficacy assessments, weekly follow-up contact via telephone, and an End-of-Study (EOS) visit on Day 56. Number of patients (planned and analyzed): Ninety two (92) patients were randomized into the study. The majority of the patients (N=78, 84.8%) completed the study as planned. A total of 14 patients discontinued the study (N=2 from placebo group and N=12 from Compound A group). The reasons for discontinuations include adverse events, protocol deviations (failure to meet inclusion/exclusion at Baseline), patient decision, abnormal laboratory values (positive drug screen) and administrative problems (patient unable to return to site for visits).
# as §2, §3
# For the treatment effect a summary table, the frequency (n, %) of patients with a positive culture was reported by each treatment. Only patients with a positive culture at baseline are included in this analysis. Percentage was calculated as number of patients who are colonized (i.e., have at least one culture resulted) divided with total number of patients who produced a sputum sample at each visit, by treatment.
# [11] = test system: Pseudomonas aeruginosa small colony variant; format: in vivo; conditions: Baseline
# Description: as §1
# Spontaneous sputum was collected from patients and used to quantify colony forming units (CFUs) as a potential efficacy marker. […] In the event of bacterial growth for one or more of the above five pathogens, then the test result was reported, including the quantitative growth. […]
# as §3, with “In Table 4, the frequency (n, %) of patients was reported by treatment with Compound A and type of bacteria.” left out
# [12] = test system: COPD patients; experiment: COPD PoC study (study 2): lung function (LCI, FEV1, spirometry); format: in vivo, human
# Description: as §1
# UGT1A1, sequence (P22309 26-533): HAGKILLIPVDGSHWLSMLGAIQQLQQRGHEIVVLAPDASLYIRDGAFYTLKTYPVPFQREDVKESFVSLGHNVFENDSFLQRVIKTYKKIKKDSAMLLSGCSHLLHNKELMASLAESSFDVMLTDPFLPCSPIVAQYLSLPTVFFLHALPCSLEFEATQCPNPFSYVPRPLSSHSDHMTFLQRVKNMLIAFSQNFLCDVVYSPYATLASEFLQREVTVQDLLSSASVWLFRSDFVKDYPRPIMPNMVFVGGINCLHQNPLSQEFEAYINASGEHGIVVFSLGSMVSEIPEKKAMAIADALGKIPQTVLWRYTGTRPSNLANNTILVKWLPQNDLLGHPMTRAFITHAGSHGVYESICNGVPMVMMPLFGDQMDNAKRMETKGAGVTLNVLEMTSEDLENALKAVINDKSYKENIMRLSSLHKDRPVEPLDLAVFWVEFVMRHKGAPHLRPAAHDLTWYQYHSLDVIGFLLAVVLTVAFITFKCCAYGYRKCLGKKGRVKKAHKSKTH
# OATP1B3, sequence (Q9NPD5 whole entry): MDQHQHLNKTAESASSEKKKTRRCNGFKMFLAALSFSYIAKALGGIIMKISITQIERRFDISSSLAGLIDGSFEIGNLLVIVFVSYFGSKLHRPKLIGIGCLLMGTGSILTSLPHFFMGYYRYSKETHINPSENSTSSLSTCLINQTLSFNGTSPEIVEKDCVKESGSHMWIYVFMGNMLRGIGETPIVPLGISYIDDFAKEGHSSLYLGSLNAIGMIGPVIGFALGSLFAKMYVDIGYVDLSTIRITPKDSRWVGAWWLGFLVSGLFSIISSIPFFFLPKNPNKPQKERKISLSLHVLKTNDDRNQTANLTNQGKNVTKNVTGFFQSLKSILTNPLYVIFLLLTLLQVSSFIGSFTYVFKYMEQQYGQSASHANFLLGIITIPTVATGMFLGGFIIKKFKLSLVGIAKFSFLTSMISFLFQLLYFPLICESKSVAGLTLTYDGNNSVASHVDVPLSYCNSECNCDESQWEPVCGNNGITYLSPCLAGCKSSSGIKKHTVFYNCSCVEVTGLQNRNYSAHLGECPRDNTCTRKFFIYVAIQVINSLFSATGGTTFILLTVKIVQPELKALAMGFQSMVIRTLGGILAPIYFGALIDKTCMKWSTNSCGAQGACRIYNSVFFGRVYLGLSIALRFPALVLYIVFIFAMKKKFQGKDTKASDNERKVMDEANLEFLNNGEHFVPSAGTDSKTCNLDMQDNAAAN
# wild type CTFR channel, sequence (P13569 whole entry): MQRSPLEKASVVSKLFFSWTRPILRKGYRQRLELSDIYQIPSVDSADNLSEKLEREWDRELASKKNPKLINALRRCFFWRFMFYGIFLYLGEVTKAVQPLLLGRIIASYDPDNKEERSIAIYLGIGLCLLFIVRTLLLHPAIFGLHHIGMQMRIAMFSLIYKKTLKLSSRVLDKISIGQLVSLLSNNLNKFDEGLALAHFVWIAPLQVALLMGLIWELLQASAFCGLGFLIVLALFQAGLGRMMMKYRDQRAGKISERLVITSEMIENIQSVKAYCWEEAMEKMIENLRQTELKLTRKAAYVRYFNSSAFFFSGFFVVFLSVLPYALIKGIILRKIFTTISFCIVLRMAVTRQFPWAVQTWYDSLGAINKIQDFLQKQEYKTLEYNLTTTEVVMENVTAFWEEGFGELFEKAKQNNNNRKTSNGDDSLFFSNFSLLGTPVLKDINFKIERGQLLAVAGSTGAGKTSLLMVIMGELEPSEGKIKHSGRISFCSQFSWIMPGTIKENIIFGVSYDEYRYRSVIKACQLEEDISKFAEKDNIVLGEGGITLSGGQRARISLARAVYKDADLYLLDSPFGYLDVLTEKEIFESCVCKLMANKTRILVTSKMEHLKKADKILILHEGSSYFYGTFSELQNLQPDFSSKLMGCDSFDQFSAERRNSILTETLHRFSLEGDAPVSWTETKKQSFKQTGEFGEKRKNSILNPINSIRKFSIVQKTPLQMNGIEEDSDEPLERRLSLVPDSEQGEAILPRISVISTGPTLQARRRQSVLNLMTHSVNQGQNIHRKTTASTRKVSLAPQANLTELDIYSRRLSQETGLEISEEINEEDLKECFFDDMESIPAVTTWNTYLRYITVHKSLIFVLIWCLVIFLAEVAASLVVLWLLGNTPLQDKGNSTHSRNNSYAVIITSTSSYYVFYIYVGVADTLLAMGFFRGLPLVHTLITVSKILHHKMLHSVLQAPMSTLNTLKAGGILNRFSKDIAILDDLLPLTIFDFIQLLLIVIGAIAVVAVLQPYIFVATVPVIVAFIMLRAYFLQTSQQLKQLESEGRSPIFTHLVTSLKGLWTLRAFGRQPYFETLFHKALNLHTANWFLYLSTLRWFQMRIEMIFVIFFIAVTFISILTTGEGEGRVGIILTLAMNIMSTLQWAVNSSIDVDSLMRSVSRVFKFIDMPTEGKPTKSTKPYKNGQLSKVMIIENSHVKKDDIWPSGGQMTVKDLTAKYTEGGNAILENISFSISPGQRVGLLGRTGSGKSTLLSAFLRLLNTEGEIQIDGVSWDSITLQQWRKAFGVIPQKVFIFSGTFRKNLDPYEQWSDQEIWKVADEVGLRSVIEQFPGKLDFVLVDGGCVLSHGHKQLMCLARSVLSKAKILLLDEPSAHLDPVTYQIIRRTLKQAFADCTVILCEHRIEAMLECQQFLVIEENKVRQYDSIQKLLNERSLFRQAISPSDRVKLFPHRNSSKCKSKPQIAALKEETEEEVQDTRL
smiles,measurement,setting,value
"COc1nc(C(=O)NC[C@](C)(O)C(F)(F)F)c(N)cc1C(F)(F)F (single isomer, unassigned) [Example 5]",estimated difference (Compound A - placebo) in mean change from baseline sweat chloride,[1],-5.19 mmol/L
same,lung function (FEV1),[2],significant improvement; also recorded: statistically important improvement
same,inhibition of OAT1/3,[3],Weak in vitro inhibition
same,"patients colonized, n (%)",[4]; Baseline,2 (4.4) n (%)
same,"patients colonized, n (%)",[4]; D14,4 (9.3) n (%)
same,"patients colonized, n (%)",[4]; D29,2 (4.8) n (%)
same,"patients colonized, n (%)",[4]; EOS,1 (2.4) n (%)
same,inhibition of UGT1A1,[5],Weak in vitro inhibition
same,"patients colonized, n (%)",[6]; Baseline,25 (55.6) n (%)
same,"patients colonized, n (%)",[6]; D14,20 (46.5) n (%)
same,"patients colonized, n (%)",[6]; D29,22 (52.4) n (%)
same,"patients colonized, n (%)",[6]; EOS,16 (38.1) n (%)
same,EC50,[7],72 nM
same,inhibition of OATP1B3,[8],Weak in vitro inhibition
same,AUC(0-t),"[9]; NOAEL exposure, AUC0-24 h (exposure threshold), chronic monkey toxicology study",91.7 µg·h/mL
same,AUC(0-t),"[9]; upper range of the individual animal (monkey) exposures, AUC0-24 h",159 µg·h/mL
same,"patients colonized, n (%)",[10]; Baseline,26 (57.8) n (%)
same,"bacterial colonization, percent of patients","[10]; Baseline, sputum analysis set",58%
same,"patients colonized, n (%)",[10]; D14,23 (53.5) n (%)
same,"patients with a positive culture, n (%)",[10]; D14,19 (76.0) n (%)
same,"patients colonized, n (%)",[10]; D29,23 (54.8) n (%)
same,"patients with a positive culture, n (%)",[10]; D29,18 (75.0) n (%)
same,percent of patients who cleared colonization,"[10]; Day 29, placebo 15%",25%
same,percent of patients colonized,"[10]; Day 29, sputum analysis set, placebo 70%",55%
same,"patients colonized, n (%)",[10]; EOS,17 (40.5) n (%)
same,"patients with a positive culture, n (%)",[10]; EOS,14 (58.3) n (%)
same,percent of patients who cleared colonization,"[10]; EOS, placebo 23%",42%
same,percent of patients colonized,"[10]; EOS, sputum analysis set, placebo 74%",41%
same,"patients colonized, n (%)",[11],1 (2.2) n (%)
same,"LCI, pre-bronchodilator FEV1 and post-bronchodilator FEV1, mean change from baseline","[12]; Day 14, COPD patients",evidence of improvement
same,"pre- and post-bronchodilator FVC, IC, % FEF25-75 compared to placebo","[12]; Day 29, 300 mg bid 28 days, COPD patients",supportive evidence of improvement
same,estimated difference (Compound A - placebo) in mean change from baseline post-bronchodilator FEV1,"[12]; Day 29, 300 mg bid 28 days, COPD, 90% CI −0.02, 0.14, p-value=0.100",0.06 L
same,posterior difference (Compound A - placebo) in mean change from baseline pre-bronchodilator FEV1,"[12]; Day 29, 300 mg bid 28 days, COPD, 90% CrI −0.03, 0.13, 84% probability better than placebo",0.05 L
same,posterior difference (Compound A - placebo) in mean change from baseline LCI,"[12]; Day 29, 300 mg bid 28 days, COPD, 90% CrI −0.24, 0.79, 19% probability better than placebo",0.28
same,"efficacy results for FEV1, sweat chloride, fibrinogen, spirometry and lung volume measurements","[12]; EOS, 28 days after the last dose, COPD patients",returned to baseline
same,lung function (FEV1),"[12]; patients with COPD, four weeks of treatment, listed as Compound A",significant improvement; also recorded: statistically important improvement
